Data: patent US20050239656A1, “Pyridine compounds or salts thereof and herbicides containing the same” (priority 2002, published 2005)

Columns and labels:
barnyardgrass [1] = experiment: Test Example 1: foliage treatment, upland pot test; format: in vivo, Echinochloa crus-galli L.; conditions: observed 18th to 23rd day, 0 = non-treated, 100 = complete kill
Summary of the method: (§1)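 Crops and weeds were sown in upland soil pots and sprayed post-emergence at set leaf stages (soybean 0.1–0.4, wheat 1.3–2.4, rice 1.2–2.6, barnyardgrass 1.3–2.8). Formulated compound was applied in 500 L/ha water with 0.1% spreader. Growth control (0–100%) was rated visually 18–23 days later.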

crabgrass [2] = experiment: Test Example 1: foliage treatment, upland pot test; format: in vivo, Digitaria sanguinalis L.; conditions: observed 18th to 23rd day, 0 = non-treated, 100 = complete kill
green foxtail [3] = experiment: Test Example 1: foliage treatment, upland pot test; format: in vivo, Setaria viridis L.; conditions: observed 18th to 23rd day, 0 = non-treated, 100 = complete kill
redroot pigweed [4] = experiment: Test Example 1: foliage treatment, upland pot test; format: in vivo, Amaranthus retroflexus L.; conditions: observed 18th to 23rd day, 0 = non-treated, 100 = complete kill
prickly sida [5] = experiment: Test Example 1: foliage treatment, upland pot test; format: in vivo, Sida spinosa L.; conditions: observed 18th to 23rd day, 0 = non-treated, 100 = complete kill
velvetleaf [6] = experiment: Test Example 1: foliage treatment, upland pot test; format: in vivo, Abutilon theophrasti MEDIC.; conditions: observed 18th to 23rd day, 0 = non-treated, 100 = complete kill
tall morningglory = experiment: Test Example 1: foliage treatment, upland pot test; format: in vivo, Ipomoea purpurea L.; conditions: observed 18th to 23rd day, 0 = non-treated, 100 = complete kill
From the text: Upland field soil was put into a 1/170,000 ha pot, and seed of various plants were sown. Then, when the plants reached predetermined leaf stages ((1) barnyardgrass: 1.3 to 2.8 leaf stages, (2) crabgrass: 1.0 to 2.8 leaf stages, (3) green foxtail: 1.3 to 2.6 leaf stages, (4) redroot pigweed: 0.1 to 1.2 leaf stages, (5) prickly sida: 0.1 to 1.2 leaf stages, (6) velvetleaf: 0.1 to 1.2 leaf stages, (7) tall morningglory: 0.1 to 1.5 leaf stages, (8) rice: 1.2 to 2.6 leaf stages, (9) wheat: 1.3 to 2.4 leaf stages, (10) corn, 2.1 to 3.2 leaf stages, (11) soybean: 0.1 to 0.4 leaf stage), a wettable powder or emulsifiable concentrate having the compound of the present invention formulated in accordance with a usual formulation method, was weighed so that the active ingredient would be a predetermined amount, and diluted with water in an amount of 500 L/ha. To the diluted solution, 0.1% (v/v) of agricultural spreader was added. The herbicide thus adjusted was applied by a small size sprayer for foliage treatment. On the 18th to 23rd days after the application of the herbicide, the growth of the respective plants was visually observed, and the herbicidal effects were evaluated by the growth controlling degrees (%) ranging from 0 (equivalent to the non-treated plot) to 100 (complete kill), whereby the results shown in Table 3, were obtained.

rice [7] = experiment: Test Example 1: foliage treatment, upland pot test; format: in vivo, Oryza sativa L.; conditions: crop, observed 18th to 23rd day, 0 = non-treated, 100 = complete kill
Summary of the method: as §1

corn [8] = experiment: Test Example 1: foliage treatment, upland pot test; format: in vivo, Zea mays L.; conditions: crop, observed 18th to 23rd day, 0 = non-treated, 100 = complete kill
Summary of the method: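 Corn seeds were sown in upland field soil held in a 1/170,000 ha pot and grown to the 2.1 to 3.2 leaf stage. A wettable powder or emulsifiable concentrate of the test compound was diluted with water at 500 L/ha, given 0.1% (v/v) agricultural spreader, and sprayed onto the foliage with a small sprayer. Growth controlling degree (%) was scored visually 18th to 23rd days later, from 0 (non-treated) to 100 (complete kill).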

soybean [9] = experiment: Test Example 1: foliage treatment, upland pot test; format: in vivo, Glycine max Merr.; conditions: crop, observed 18th to 23rd day, 0 = non-treated, 100 = complete kill
Summary of the method: as §1

barnyardgrass [10] = experiment: Test Example 2: soil surface treatment, upland pot test; format: in vivo, Echinochloa crus-galli L.; conditions: active ingredient 1000 g/ha, observed 20th to 28th day, 0 = non-treated, 100 = complete kill
Summary of the method: (§2)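 Visual growth-control ratings (0 = untreated, 100 = complete kill) were taken 20–28 days after soil surface application. The spray was made one day post-sowing in upland soil pots, using formulated compound diluted with water at 1,500 L/ha at a set active ingredient rate.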

crabgrass [11] = experiment: as above; format: in vivo, Digitaria sanguinalis L.; conditions: active ingredient 1000 g/ha, observed 20th to 28th day
Summary of the method: as §2

green foxtail [12] = experiment: as above; format: in vivo, Setaria viridis L.; conditions: active ingredient 1000 g/ha, observed 20th to 28th day
Summary of the method: as §2

redroot pigweed [13] = experiment: as above; format: in vivo, Amaranthus retroflexus L.; conditions: active ingredient 1000 g/ha, observed 20th to 28th day
Summary of the method: as §2

prickly sida [14] = experiment: as above; format: in vivo, Sida spinosa L.; conditions: active ingredient 1000 g/ha, observed 20th to 28th day
Summary of the method: as §2

velvetleaf [15] = experiment: as above; format: in vivo, Abutilon theophrasti MEDIC.; conditions: active ingredient 1000 g/ha, observed 20th to 28th day
Summary of the method: as §2

rice [16] = experiment: as above; format: in vivo, Oryza sativa L.; conditions: active ingredient 1000 g/ha, observed 20th to 28th day
Summary of the method: as §2

wheat [17] = experiment: as above; format: in vivo, Triticum spp.; conditions: active ingredient 1000 g/ha, observed 20th to 28th day
Summary of the method: as §2

corn [18] = experiment: as above; format: in vivo, Zea mays L.; conditions: active ingredient 1000 g/ha, observed 20th to 28th day
Summary of the method: as §2

soybean [19] = experiment: as above; format: in vivo, Glycine max Merr.; conditions: active ingredient 1000 g/ha, observed 20th to 28th day
Summary of the method: as §2

barnyardgrass [20] = experiment: Test Example 3: paddy pot test, application under submerged conditions; format: in vivo, Echinochloa crus-galli L.; conditions: active ingredient 500 g/ha; submerged application at 0.5 leaf stage; visually observed 14 days after application; 0 = non-treated, 100 = complete kill
Summary of the method: (§3)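 Barnyardgrass and japanese bulrush sown in flooded paddy soil in greenhouse pots, japanese ribbon wapato tubers planted 1–2 days later; water depth kept at 3–4 cm. Diluted wettable powder or emulsifiable concentrate applied into water at 0.5-leaf or primary-leaf stage at set active-ingredient doses. Growth control scored visually at 14 days, 0 (untreated) to 100% (complete kill).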

japanese bulrush = experiment: as above; format: in vivo, Scirpus juncoides; conditions: active ingredient 500 g/ha; submerged application at 0.5 leaf stage; visually observed 14 days after application; 0 = non-treated, 100 = complete kill
Summary of the method: as §3

japanese ribbon wapato = experiment: as above; format: in vivo, Sagittaria pygniaea; conditions: active ingredient 500 g/ha; submerged application at primary leaf stage; visually observed 14 days after application; 0 = non-treated, 100 = complete kill
Summary of the method: as §3

rice (var. Nihonbare) = experiment: Test Example 3: paddy pot test, transplanted rice; format: in vivo, Oryza sativa L.; conditions: active ingredient 500 g/ha, applied 4th day after transplantation, visually observed 21st day after application, 0 = non-treated, 100 = complete kill
Summary of the method: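 Rice (var. Nihonbare) at 2 leaf stage transplanted 3 cm deep into puddled paddy soil under 3–4 cm flooding; on day 4 after transplanting, diluted wettable powder or emulsifiable concentrate applied by pipette under submerged conditions at a set active-ingredient dose. Growth scored visually 21 days after application, 0 (untreated) to 100 (complete kill) %.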

wheat [21] = experiment: Test Example 1: foliage treatment, upland pot test; format: in vivo, Triticum spp.; conditions: crop, active ingredient 1000 g/ha, observed 18th to 23rd day, 0 = non-treated, 100 = complete kill
Summary of the method: as §1

| Structure (SMILES) | Growth controlling degree (%) Barnyardgrass (barnyardgrass [1]; active ingredient 500 g/ha) | Growth controlling degree (%) Crabgrass (crabgrass [2]; active ingredient 500 g/ha) | Growth controlling degree (%) Green foxtail (green foxtail [3]; active ingredient 500 g/ha) | Growth controlling degree (%) Redroot pigweed (redroot pigweed [4]; active ingredient 500 g/ha) | Growth controlling degree (%) Prickly sida (prickly sida [5]; active ingredient 500 g/ha) | Growth controlling degree (%) Velvetleaf (velvetleaf [6]; active ingredient 500 g/ha) | Growth controlling degree (%) Tall morningglory (tall morningglory; active ingredient 500 g/ha) | Growth controlling degree (%) Rice (rice [7]; active ingredient 500 g/ha) | Growth controlling degree (%) Corn (corn [8]; active ingredient 500 g/ha) | Growth controlling degree (%) Soybean (soybean [9]; active ingredient 500 g/ha) | Growth controlling degree (%) Barnyardgrass (barnyardgrass [10]) | Growth controlling degree (%) Crabgrass (crabgrass [11]) | Growth controlling degree (%) Green foxtail (green foxtail [12]) | Growth controlling degree (%) Redroot pigweed (redroot pigweed [13]) | Growth controlling degree (%) Prickly sida (prickly sida [14]) | Growth controlling degree (%) Velvetleaf (velvetleaf [15]) | Growth controlling degree (%) Rice (rice [16]) | Growth controlling degree (%) wheat (wheat [17]) | Growth controlling degree (%) Corn (corn [18]) | Growth controlling degree (%) Soyabean (soybean [19]) | also measured |
| --- | --- | --- | --- | --- | --- | --- | --- | --- | --- | --- | --- | --- | --- | --- | --- | --- | --- | --- | --- | --- | --- |
| CC(C(=O)N(C)C(c1cnccc1C(F)(F)F)C(C)C)c1ccccc1 (centres unmarked) [I-12] | 50% | 95% | 60% | 50% | 60% | 80% | 70% | 0% | 10% | 30% | 100% | 100% | 100% | 90% | 90% | 80% | 10% | 40% | 0% | 20% | Growth controlling degree (%) Barnyardgrass (barnyardgrass [20]): 100%; Growth controlling degree (%) Japanese bulrush (japanese bulrush): 100%; Growth controlling degree (%) Japanese ribbon wapato (japanese ribbon wapato): 70%; Growth controlling degree (%) Rice (rice (var. Nihonbare)): 30% |
| CC(C)COC(=O)N(C)C(c1cnccc1C(F)(F)F)c1cccc2ccccc12 (centres unmarked) [I-52] | – | – | – | – | – | – | – | – | – | – | – | – | – | – | – | – | – | – | – | – | Growth controlling degree (%) Barnyardgrass (barnyardgrass [1]; active ingredient 1000 g/ha): 50%; Growth controlling degree (%) Crabgrass (crabgrass [2]; active ingredient 1000 g/ha): 80%; Growth controlling degree (%) Green foxtail (green foxtail [3]; active ingredient 1000 g/ha): 20%; Growth controlling degree (%) Redroot pigweed (redroot pigweed [4]; active ingredient 1000 g/ha): 60%; Growth controlling degree (%) Prickly sida (prickly sida [5]; active ingredient 1000 g/ha): 70%; Growth controlling degree (%) Velvetleaf (velvetleaf [6]; active ingredient 1000 g/ha): 95%; Growth controlling degree (%) Tall morningglory (tall morningglory; active ingredient 1000 g/ha): 95%; Growth controlling degree (%) Rice (rice [7]; active ingredient 1000 g/ha): 10%; Growth controlling degree (%) wheat (wheat [21]): 10%; Growth controlling degree (%) Corn (corn [8]; active ingredient 1000 g/ha): 60%; Growth controlling degree (%) Soybean (soybean [9]; active ingredient 1000 g/ha): 0% |
| CC(C)C(c1cnccc1C(F)(F)F)N(C)C(=O)Cc1c(F)cccc1F (centres unmarked) [I-13] | 80% | 80% | 80% | 80% | 70% | 80% | 95% | 20% | 70% | 90% | 100% | 100% | 100% | 90% | 90% | 100% | 30% | 98% | 40% | 20% | Growth controlling degree (%) Barnyardgrass (barnyardgrass [20]): 100%; Growth controlling degree (%) Japanese bulrush (japanese bulrush): 95%; Growth controlling degree (%) Japanese ribbon wapato (japanese ribbon wapato): 90%; Growth controlling degree (%) Rice (rice (var. Nihonbare)): 30% |
| CC(C)C(c1cnccc1C(F)(F)F)N(C)C(=O)Cc1ccc(Cl)cc1Cl (centres unmarked) [I-14] | 50% | 70% | 60% | 80% | 80% | 70% | 95% | 20% | 40% | 20% | 100% | 100% | 100% | 85% | 60% | 60% | 10% | 30% | 20% | 0% | Growth controlling degree (%) Barnyardgrass (barnyardgrass [20]): 100%; Growth controlling degree (%) Japanese bulrush (japanese bulrush): 98%; Growth controlling degree (%) Japanese ribbon wapato (japanese ribbon wapato): 30%; Growth controlling degree (%) Rice (rice (var. Nihonbare)): 10% |
